Experimental data published in patent publication US20080311266A1, “Salt Enhancement” (priority 2007, published 2008).

What was measured:
[1] = Cooling threshold (level at which cooling effect detected); assay type: in vivo
tasting panel = experiment: Tasting panel test of perceived saltiness in salt-reduced broth; assay type: in vivo; details: for Level at which saltiness increase perceived / Effect on the perceived saltiness: salt-reduced broth, tasting panel; for Effect on the perceived saltiness: in words; for Upper threshold value for salt enhancement: stated in description
Method: A variety of compounds (listed in the table above) was tested in a salt-reduced broth. The compounds concerned were simply added to samples of the broth in a variety of concentrations and stirred in. The samples were tested by their being submitted to a tasting panel, which recorded its perceptions as to which sample (and therefore at what level of compound) a perception of increased saltiness was observed. The results are recorded in the table in the specification above.

SMILES: CC1CCC(C(C)C)C(C(=O)Nc2ccc(CC#N)cc2)C1 (stereo not shown) [Compound 1, N-(4-cyanomethylphenyl) p-menthanecarboxamide]
- Threshold level at which cooling effect detected - estimated [1]: 0.08 ppm
- Level at which saltiness increase perceived (tasting panel): 0.005 ppm
- Effect on the perceived saltiness (tasting panel): considerably greater effect
- Upper threshold value for salt enhancement (tasting panel): 0.005 ppm

SMILES: CC(C)[C@@H]1CC[C@@H](C)C[C@H]1C(=O)NCCc1ccccn1 [Compound 2, (1R,2S,5R)-2-isopropyl-5-methyl-N-(2-(pyridin-2-yl)ethyl)cyclohexanecarboxamide]
- Threshold level at which cooling effect detected - estimated [1]: 0.08 ppm
- Level at which saltiness increase perceived (tasting panel): 0.005 ppm
- Effect on the perceived saltiness (tasting panel): considerably greater effect
- Upper threshold value for salt enhancement (tasting panel): 0.005 ppm

SMILES: CC1CCC(C(C)C)C(O)C1 (stereo not shown) [Menthol, menthol]
- Threshold level at which cooling effect detected - estimated [1]: 1.5 ppm
- Level at which saltiness increase perceived (tasting panel): 0.05 ppm

SMILES: CCNC(=O)C1CC(C)CCC1C(C)C (stereo not shown) [WS3]
- Threshold level at which cooling effect detected - estimated [1]: 1 ppm
- Level at which saltiness increase perceived (tasting panel): 0.05 ppm

SMILES: CNC(=O)C(C)(C(C)C)C(C)C [WS23]
- Threshold level at which cooling effect detected - estimated [1]: 1.5 ppm
- Level at which saltiness increase perceived (tasting panel): 0.05 ppm

SMILES: CC1CCC(C(C)C)C(OC(=O)C(C)O)C1 (stereo not shown) [menthyl lactate]
- Threshold level at which cooling effect detected - estimated [1]: 0.8 ppm
- Level at which saltiness increase perceived (tasting panel): 0.05 ppm
